Experimental data reported in ChEMBL document CHEMBL1201862, “PubChem BioAssay data set” (2004).
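Grown in 96-well plates, cells were treated for 48 hours with each compound at five concentrations. Insufficient inhibition: endpoint recorded as highest concentration tested. GI50 is the concentration that inhibits growth by half.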 Activity calls are given as the source filed them. Cut-off read from the data, not from the text of the source: active = GI50 up to about 1.1 µM and inactive = higher.

Legend:
Assay in all cases: DTP human tumour cell line panel, 48 h
HT-29 = system: HT-29
NCI-H23 = system: NCI-H23
OVCAR-3 = system: OVCAR-3
ACHN = system: ACHN
SK-MEL-28 = system: SK-MEL-28
HCT-15 = system: HCT-15
CAKI-1 = system: CAKI-1
SF-539 = system: SF-539
OVCAR-4 = system: OVCAR-4
M14 = system: M14
SNB-75 = system: SNB-75
TK-10 = system: TK-10
SK-OV-3 = system: SK-OV-3
SK-MEL-2 = system: SK-MEL-2
OVCAR-5 = system: OVCAR-5
NCI-H522 = system: NCI-H522
NCI-H226 = system: NCI-H226
SR = system: SR

Structure (SMILES)	GI50 (HT-29)	GI50 (NCI-H23)	GI50 (OVCAR-3)	GI50 (ACHN)	GI50 (SK-MEL-28)	GI50 (HCT-15) [µM]	GI50 (CAKI-1)	GI50 (SF-539)	GI50 (OVCAR-4)	GI50 (M14)	GI50 (SNB-75)	GI50 (TK-10)	GI50 (SK-OV-3)	GI50 (SK-MEL-2)	GI50 (OVCAR-5)	GI50 (NCI-H522)	GI50 (NCI-H226)	GI50 (SR)
CCOC(=O)NC(=O)c1cn(CCCCCCCCCCC(=O)N2CCN(CCn3cc(C(=O)NC(=O)OCC)c(=O)[nH]c3=O)CC2)c(=O)[nH]c1=O	> 100 µM (inactive)	> 100 µM (inactive)	> 100 µM (inactive)	> 100 µM (inactive)	> 100 µM (inactive)	> 100	> 100 µM (inactive)	> 100 µM (inactive)	> 100 µM (inactive)	> 100 µM (inactive)	> 100 µM (inactive)	> 100 µM (inactive)	> 100 µM (inactive)					
O=S(=O)(O)C(F)(F)C(F)(F)C(F)(F)C(F)(F)F	> 100 µM (inactive)	> 100 µM (inactive)	> 100 µM (inactive)	> 100 µM (inactive)		> 100	> 100 µM (inactive)	> 100 µM (inactive)	> 100 µM (inactive)	> 100 µM (inactive)	> 100 µM (inactive)	> 100 µM (inactive)	> 100 µM (inactive)	> 100 µM (inactive)	> 100 µM (inactive)			
CCOC(=O)C1=C(OC(OCC)C(CC)[Se]c2ccccc2)CCCC1 (stereo not drawn)	24.7 µM (inactive)	10.9 µM (inactive)	21.1 µM (inactive)	28.1 µM (inactive)	40.5 µM (inactive)	16.9	37.3 µM (inactive)	17.8 µM (inactive)	14.5 µM (inactive)	15.6 µM (inactive)	16.9 µM (inactive)	> 100 µM (inactive)	> 100 µM (inactive)	8.32 µM (inactive)	26.3 µM (inactive)	14.6 µM (inactive)	21.8 µM (inactive)	
COC(=O)[C@@H]1C(=O)O[C@@H](c2ccc(OC)c(OC)c2OC)[C@@H]1C(=O)OC.COC(=O)[C@H]1C(=O)O[C@@H](c2ccc(OC)c(OC)c2OC)[C@@H]1C(=O)OC	> 100 µM (inactive)	> 100 µM (inactive)	> 100 µM (inactive)	> 100 µM (inactive)	> 100 µM (inactive)	> 100	> 100 µM (inactive)	> 100 µM (inactive)	> 100 µM (inactive)	> 100 µM (inactive)	> 100 µM (inactive)	> 100 µM (inactive)	> 100 µM (inactive)		> 100 µM (inactive)	> 100 µM (inactive)	> 100 µM (inactive)	> 100 µM (inactive)
c1ccc(SC(CCCCOC2CCCCO2)Sc2ccccc2)cc1 (stereo not drawn)	52 µM (inactive)	40.8 µM (inactive)	56.5 µM (inactive)	59.7 µM (inactive)	64.3 µM (inactive)	91.2	92.7 µM (inactive)	> 100 µM (inactive)	55.6 µM (inactive)	> 100 µM (inactive)	49.8 µM (inactive)	> 100 µM (inactive)	> 100 µM (inactive)	22.6 µM (inactive)	> 100 µM (inactive)	18.4 µM (inactive)		
COC(=O)CC1NC(=O)C1C(C)(OC)OC (stereo not drawn)	> 100 µM (inactive)	> 100 µM (inactive)	> 100 µM (inactive)	> 100 µM (inactive)	> 100 µM (inactive)	> 100		> 100 µM (inactive)	> 100 µM (inactive)	> 100 µM (inactive)	30.3 µM (inactive)	> 100 µM (inactive)		> 100 µM (inactive)			> 100 µM (inactive)	> 100 µM (inactive)
CCCCCCCC[N+](C)(C)Cc1ccc(C[N+](C)(C)CCCCCCCC)cc1	6.03 µM (inactive)	4.55 µM (inactive)	29.6 µM (inactive)	> 100 µM (inactive)	> 100 µM (inactive)	> 100	45.4 µM (inactive)		18.6 µM (inactive)	85.9 µM (inactive)	15.8 µM (inactive)	86.9 µM (inactive)	69.7 µM (inactive)	14.9 µM (inactive)	> 100 µM (inactive)	5.58 µM (inactive)	34.5 µM (inactive)	> 100 µM (inactive)
Cc1cc2c(=O)cc(-c3ccc(Cl)cc3Cl)oc2c(C(=O)O)c1C	> 100 µM (inactive)	> 100 µM (inactive)	> 100 µM (inactive)	> 100 µM (inactive)	> 100 µM (inactive)	> 100	> 100 µM (inactive)	> 100 µM (inactive)	> 100 µM (inactive)	> 100 µM (inactive)	> 100 µM (inactive)	> 100 µM (inactive)	> 100 µM (inactive)	> 100 µM (inactive)	> 100 µM (inactive)	25.3 µM (inactive)	> 100 µM (inactive)	
C1=CC=C2NCCC/N=C3/C=CC=CC=C3NCCC/N=C\2C=C1	> 100 µM (inactive)		> 100 µM (inactive)	> 100 µM (inactive)	> 100 µM (inactive)	> 100		> 100 µM (inactive)	> 100 µM (inactive)	> 100 µM (inactive)	> 100 µM (inactive)	> 100 µM (inactive)	> 100 µM (inactive)	> 100 µM (inactive)	> 100 µM (inactive)		> 100 µM (inactive)	
COC1OC2COC(c3ccccc3)OC2C(O)C1Br (stereo not drawn)	> 100 µM (inactive)	> 100 µM (inactive)	> 100 µM (inactive)	> 100 µM (inactive)	> 100 µM (inactive)	> 100	> 100 µM (inactive)	> 100 µM (inactive)	> 100 µM (inactive)	> 100 µM (inactive)		> 100 µM (inactive)			> 100 µM (inactive)	> 100 µM (inactive)		> 100 µM (inactive)
O=C(NC(=O)c1cn(CCN2CCN(C(=O)NCCCCCCNC(=O)N3CCN(CCn4cc(C(=O)NC(=O)OCc5ccccc5)c(=O)[nH]c4=O)CC3)CC2)c(=O)[nH]c1=O)OCc1ccccc1	> 100 µM (inactive)	> 100 µM (inactive)	> 100 µM (inactive)	> 100 µM (inactive)	> 100 µM (inactive)	> 100	> 100 µM (inactive)	> 100 µM (inactive)	> 100 µM (inactive)	> 100 µM (inactive)	60.8 µM (inactive)	> 100 µM (inactive)	> 100 µM (inactive)		> 100 µM (inactive)			
COc1cc2nc(Sc3c([N+](=O)[O-])ncn3C)[nH]c2cc1OC	41.7 µM (inactive)	26.1 µM (inactive)	46.8 µM (inactive)	54.3 µM (inactive)	20.5 µM (inactive)	19.4	4.47 µM (inactive)	18.6 µM (inactive)	38.5 µM (inactive)	87.5 µM (inactive)	28.4 µM (inactive)	26.9 µM (inactive)	79.4 µM (inactive)		98.6 µM (inactive)		28.3 µM (inactive)	13.3 µM (inactive)
CC1=C(c2ccccc2)CON(c2ccccc2)C1	36.9 µM (inactive)	51.5 µM (inactive)	85.7 µM (inactive)	30.2 µM (inactive)	31 µM (inactive)	28.4	39.6 µM (inactive)	40.6 µM (inactive)	> 100 µM (inactive)	33.4 µM (inactive)			> 100 µM (inactive)	26.6 µM (inactive)	32.9 µM (inactive)	15.2 µM (inactive)	85.7 µM (inactive)	31.3 µM (inactive)
O=C(O)CCCNS(=O)(=O)c1ccccc1	> 100 µM (inactive)	> 100 µM (inactive)	> 100 µM (inactive)	> 100 µM (inactive)	> 100 µM (inactive)	> 100	> 100 µM (inactive)	> 100 µM (inactive)	> 100 µM (inactive)	> 100 µM (inactive)	> 100 µM (inactive)	> 100 µM (inactive)	> 100 µM (inactive)	> 100 µM (inactive)	> 100 µM (inactive)	> 100 µM (inactive)	> 100 µM (inactive)	
COc1ccc2c3c([nH]c2c1[N+](=O)[O-])C(C)N(Cc1ccc([N+](=O)[O-])cc1)CC3 (stereo not drawn)	8.75 µM (inactive)	6.7 µM (inactive)	14 µM (inactive)	18.1 µM (inactive)	11.9 µM (inactive)	15.6	3.89 µM (inactive)	> 100 µM (inactive)	2.16 µM (inactive)	8.43 µM (inactive)		29.6 µM (inactive)		14.5 µM (inactive)	31.6 µM (inactive)	3.96 µM (inactive)	18.1 µM (inactive)	5.5 µM (inactive)
CN1N=C2c3ccccc3CC[C@H]2C1c1cccc(O)c1 (stereo partly drawn)	55.1 µM (inactive)	> 100 µM (inactive)	> 100 µM (inactive)	> 100 µM (inactive)	> 100 µM (inactive)	> 100		> 100 µM (inactive)	75.9 µM (inactive)	> 100 µM (inactive)		> 100 µM (inactive)	> 100 µM (inactive)	> 100 µM (inactive)	> 100 µM (inactive)	> 100 µM (inactive)	> 100 µM (inactive)	> 100 µM (inactive)
CC(=O)Nc1ccc(C(=O)N2N=C(C)/C(=C/c3cccc([N+](=O)[O-])c3)C2=O)cc1	> 100 µM (inactive)	> 100 µM (inactive)	> 100 µM (inactive)	> 100 µM (inactive)	> 100 µM (inactive)		> 100 µM (inactive)	> 100 µM (inactive)	> 100 µM (inactive)	> 100 µM (inactive)	> 100 µM (inactive)	> 100 µM (inactive)			> 100 µM (inactive)	> 100 µM (inactive)	> 100 µM (inactive)	> 100 µM (inactive)
